In patent publication US20130005764A1, “QUININE DOSAGE FORMS AND METHODS OF USE THEREOF” (priority 2006, published 2013):
Where a name gives a salt, the structure may show the parent alone. Read-outs that look alike come from different tables or passages of the source.

Key:
[1] = human, in vivo, po
[2] = Mean plasma quinine concentrations over 24 hours following a single oral dose of quinine sulfate (Example 1, Studies 1 and 2); type: in vivo, human; details: Study 2 C: single oral 324 mg capsule, fasting; 0 hours
[3] = Non-transformed data, least squares mean; 324 mg, fasted conditions
[4] = dosing an amount between 324 mg to 658 mg, fasted
[5] = in vivo
[6] = 2 × 324 mg
[7] = in vivo; remark: listed apart in the source
[8] = for AUC0-INF / AUC0-t / Cmax: 260 mg, 1 capsule (dose adjusted to 1.25 × 324 mg)
[9] = Ln-transformed data, geometric mean, fasted conditions
[10] = Non-transformed data, least squares mean, fasted conditions
[11] = Non-transformed data, least squares mean, fed conditions
[12] = Ln-transformed data, geometric mean, fasted
[13] = Non-transformed data, least squares mean, fasted

- Mean Plasma Concentration [2]: 0; ng/ml
- kelim [3]: 0.0564
- pharmacokinetic profile proportionality to dose [4]: not linearly proportional
- Tmax ([5]; human, 648 mg): 2.8 h
- dose proportionality (Cmax) [5]: nonlinear dose proportionality
- AUC0-INF [6, 9]: 50005.77 ng·h/mL
- AUC0-t [6, 9]: 47258.21 ng·h/mL
- Cmax [6, 9]: 3197.25 ng/mL
- Cmax ([6]; Ln-transformed data, geometric mean, fed conditions): 3332.41 ng/mL
- AUC0-INF [6, 10]: 52643.14 ng·h/mL
- AUC0-t [6, 10]: 49484.64 ng·h/mL
- Cmax [6, 10]: 3293.84 ng/mL
- Tmax [6, 10]: 2.68
- AUC0-INF [6, 11]: 54409.12 ng·h/mL
- AUC0-t [6, 11]: 51228.07 ng·h/mL
- Tmax ([7]; human, 324 mg): 2.6 h
- Cmax and AUC0-t between the fed and fasted states ([7]; po): substantially unchanged
- AUC0-INF [8, 12]: 32072.92 ng·h/mL
- AUC0-t [8, 12]: 30019.28 ng·h/mL
- Cmax [8, 12]: 2251.55 ng/mL
- AUC0-INF [8, 13]: 33582.46 ng·h/mL
- AUC0-t [8, 13]: 31285.26 ng·h/mL
- Cmax [8, 13]: 2310.90 ng/mL
- Tmax ([8]; Non-transformed data, least squares mean, 324 mg, 1 capsule, fasted): 2.75
- pharmacokinetic profile proportionality to dose ([8]; dose amount between 280 mg to 324 mg): linearly proportional
Compound: C=C[C@H]1C[N@@]2CC[C@H]1C[C@H]2[C@H](O)c1ccnc2ccc(OC)cc12 [Quinine Sulfate, cinchonan-9-ol, 6′-methoxy-, (8α,9R)-, sulfate (2:1)]
- mean±SD maximum QTc change from baseline around the quinine Tmax ([1]; 324 mg): 0.01 ± 0.019 s
- mean±SD maximum QTc change from baseline around the quinine Tmax ([1]; 648 mg): 0.012 ± 0.018 s
